Source: US10947213B1 (Merck Patent GmbH, priority 2015, dated 2021)
Counter-ions that a name gives are not always drawn.

Each compound was assayed against T1, TLR7/NFKb HEK cells (Homo sapiens, UniProt Q9NYK1) (assay: HEK Cell Assay (TLR7/NFKb reporter, Steady-Glo luciferase readout)). Details: 30 min compound preincubation, then R*48 agonist for 5 hours, read-out: Potency.
T1 construct: expressed in transfected cells; host or cells: HEK cells (TLR7/NFKb reporter line)
T1 sequence (Q9NYK1 27-1049): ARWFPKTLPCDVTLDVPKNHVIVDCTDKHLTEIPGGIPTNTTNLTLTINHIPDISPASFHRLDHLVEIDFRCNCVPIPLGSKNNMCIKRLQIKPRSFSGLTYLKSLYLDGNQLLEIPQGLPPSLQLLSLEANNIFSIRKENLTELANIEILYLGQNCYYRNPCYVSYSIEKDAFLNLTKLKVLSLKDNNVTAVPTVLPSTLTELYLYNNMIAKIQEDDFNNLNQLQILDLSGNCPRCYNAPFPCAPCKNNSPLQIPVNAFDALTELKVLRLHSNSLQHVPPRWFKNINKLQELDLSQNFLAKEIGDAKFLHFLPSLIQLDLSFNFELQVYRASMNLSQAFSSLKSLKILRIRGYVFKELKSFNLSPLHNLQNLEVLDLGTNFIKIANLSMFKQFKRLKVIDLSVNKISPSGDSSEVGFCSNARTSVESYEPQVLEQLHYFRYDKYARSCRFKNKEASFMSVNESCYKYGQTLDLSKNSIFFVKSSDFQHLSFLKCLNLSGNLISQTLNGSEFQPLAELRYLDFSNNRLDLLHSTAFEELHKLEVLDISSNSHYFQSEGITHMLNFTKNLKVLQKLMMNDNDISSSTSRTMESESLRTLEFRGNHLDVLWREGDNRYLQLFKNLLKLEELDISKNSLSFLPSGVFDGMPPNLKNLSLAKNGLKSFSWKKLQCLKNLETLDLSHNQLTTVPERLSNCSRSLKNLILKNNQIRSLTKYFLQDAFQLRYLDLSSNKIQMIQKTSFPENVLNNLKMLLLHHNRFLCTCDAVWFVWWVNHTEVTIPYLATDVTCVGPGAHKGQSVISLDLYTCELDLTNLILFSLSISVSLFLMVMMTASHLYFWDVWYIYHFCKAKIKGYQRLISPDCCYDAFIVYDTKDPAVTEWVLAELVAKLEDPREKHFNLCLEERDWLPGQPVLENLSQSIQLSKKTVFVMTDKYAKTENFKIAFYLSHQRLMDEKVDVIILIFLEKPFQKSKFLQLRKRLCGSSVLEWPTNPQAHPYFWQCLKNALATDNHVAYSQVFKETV
Type: cell-based
In short: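 Steady-Glo luminescence after 5 h stimulation with R*48 agonist, following 30 min compound preincubation. Assay run in HEK cells carrying a TLR7/NFKb luciferase reporter, plated at 5000 cells/well and grown 24 h at 37° C (10% CO2) before treatment.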
`C[C@H]1C[C@@H](NC(=O)CN(C)C)CN(c2ccc(C(F)(F)F)c3ncccc23)C1` [Compound 199, 2-(dimethylamino)-N-[(3R,5S)-5-methyl-1-[8-(trifluoromethyl)quinolin-5-yl]piperidin-3-yl]acetamide] was tested, and the IC50 was < 1000 nM.
`C[C@H]1C[C@@H](N)CN(c2ccc(O)c3ncccc23)C1` [Compound 200, 5-[(3R,5S)-3-amino-5-methylpiperidin-1-yl]quinolin-8-ol hydrochloride] was tested, and the IC50 was < 1000 nM.
`COc1ccc(N2C[C@@H](C)C[C@@H](NC(=O)CC(C)(C)C)C2)c2nccnc12` [Compound 202, N-[(3R,5S)-1-(8-methoxyquinoxalin-5-yl)-5-methylpiperidin-3-yl]-3,3-dimethylbutanamide] was tested, and the IC50 was 1000 to 10000 nM.
`COc1ccc(N2C[C@@H](C)C[C@@H](NC(=O)CN(C)C)C2)c2nccnc12` [Compound 203, 2-(dimethylamino)-N-[(3R,5S)-1-(8-methoxyquinoxalin-5-yl)-5-methylpiperidin-3-yl]acetamide] was tested, and the IC50 was 1000 to 10000 nM.
In the case of `CC(C)[C@H](O)C(=O)N[C@@H]1C[C@H](C)CN(c2ccc(C(F)F)c3ncccc23)C1` [Compound 204, (2S)—N-[(3R,5S)-1-[8-(difluoromethyl)quinolin-5-yl]-5-methylpiperidin-3-yl]-2-hydroxy-3-methylbutanamide], the IC50 is reported as < 1000 nM.
`C[C@H]1C[C@@H](NC(=O)CC(C)(C)C)CN(c2ccc(C(F)F)c3ncccc23)C1` [Compound 205, N-[(3R,5S)-1-[8-(difluoromethyl)quinolin-5-yl]-5-methylpiperidin-3-yl]-3,3-dimethylbutanamide] was tested, and the IC50 was < 1000 nM.
In the case of `COCCN[C@@H]1C[C@H](C)CN(c2ccc(C(F)F)c3ncccc23)C1` [Compound 206, (3R,5S)-1-[8-(difluoromethyl)quinolin-5-yl]-N-(2-methoxyethyl)-5-methylpiperidin-3-amine], the IC50 is reported as < 1000 nM.
`C[C@H]1C[C@@H](NC(=O)CN(C)C)CN(c2ccc(C(F)F)c3ncccc23)C1` [Compound 209, N-[(3R,5S)-1-[8-(difluoromethyl)quinolin-5-yl]-5-methylpiperidin-3-yl]-2-(dimethylamino)acetamide] was tested, and the IC50 was < 1000 nM.
In the case of `CC1(C)C[C@@H](N)CN(c2ccc(C#N)c3nccnc23)C1` [Compound 210, 8-[(5R)-5-amino-3,3-dimethylpiperidin-1-yl]quinoxaline-5-carbonitrile hydrochloride], the IC50 is reported as < 1000 nM.
In the case of `CC(C)[C@@H](O)C(=O)N[C@H]1CN(c2ccc(C#N)c3nccnc23)CC(C)(C)C1` [Compound 213, (2R)—N-[(3R)-1-(8-cyanoquinoxalin-5-yl)-5,5-dimethylpiperidin-3-yl]-2-hydroxy-3-methylbutanamide], the IC50 is reported as < 1000 nM.
With `CC1(C)C[C@@H](NC(=O)CN2CCOCC2)CN(c2ccc(C#N)c3nccnc23)C1` [Compound 214, N-[(3R)-1-(8-cyanoquinoxalin-5-yl)-5,5-dimethylpiperidin-3-yl]-2-(morpholin-4-yl)acetamide] the IC50 was 1000 to 10000 nM.
In the case of `CC(C)(C)CC(=O)N[C@H]1CN(c2ccc(C#N)c3nccnc23)CC(C)(C)C1` [Compound 215, N-[(3R)-1-(8-cyanoquinoxalin-5-yl)-5,5-dimethylpiperidin-3-yl]-3,3-dimethylbutanamide], the IC50 is reported as < 1000 nM.
For `COCCN[C@H]1CN(c2ccc(C#N)c3nccnc23)CC(C)(C)C1` [Compound 216, 8-[(5R)-5-[(2-methoxyethyl)amino]-3,3-dimethylpiperidin-1-yl]quinoxaline-5-carbonitrile], the IC50 was < 1000 nM.
With `CN(C)CC(=O)N[C@H]1CN(c2ccc(C#N)c3nccnc23)CC(C)(C)C1` [Compound 217, N-[(3R)-1-(8-cyanoquinoxalin-5-yl)-5,5-dimethylpiperidin-3-yl]-2-(dimethylamino)acetamide] the IC50 was < 1000 nM.
`CC1(C)C[C@@H](NC(=O)CO)CN(c2ccc(C#N)c3nccnc23)C1` [Compound 218, N-[(3R)-1-(8-cyanoquinoxalin-5-yl)-5,5-dimethylpiperidin-3-yl]-2-hydroxyacetamide] was tested, and the IC50 was 1000 to 10000 nM.
For `CN1CCC(N[C@H]2CN(c3ccc(C#N)c4nccnc34)CC(C)(C)C2)C1=O` (stereo partly drawn) [Compound 219, 8-[(5R)-3,3-dimethyl-5-[(1-methyl-2-oxopyrrolidin-3-yl)amino]piperidin-1-yl]quinoxaline-5-carbonitrile], the IC50 was < 1000 nM.
`CC1(C)C[C@@H](NC(=O)CC(F)(F)F)CN(c2ccc(C#N)c3nccnc23)C1` [Compound 220, N-[(3R)-1-(8-cyanoquinoxalin-5-yl)-5,5-dimethylpiperidin-3-yl]-3,3,3-trifluoropropanamide] was tested, and the IC50 was 1000 to 10000 nM.
In the case of `C[C@H]1C[C@@H](NC(=O)C2(O)CC2)CN(c2ccc(C#N)c3nccnc23)C1` [Compound 230, N-[(3R,5S)-1-(8-cyanoquinoxalin-5-yl)-5-methylpiperidin-3-yl]-1-hydroxycyclopropane-1-carboxamide], the IC50 is reported as < 1000 nM.
With `C[C@H]1C[C@@H](NC(C)(C)CO)CN(c2ccc(C#N)c3nccnc23)C1` [Compound 231, 8-[(3R,5S)-3-[(1-hydroxy-2-methylpropan-2-yl)amino]-5-methylpiperidin-1-yl]quinoxaline-5-carbonitrile] the IC50 was < 1000 nM.
With `C[C@H]1C[C@@H](NC(=O)CC2CCN(C)CC2)CN(c2ccc(C#N)c3nccnc23)C1` [Compound 232, N-[(3R,5S)-1-(8-cyanoquinoxalin-5-yl)-5-methylpiperidin-3-yl]-2-(1-methylpiperidin-4-yl)acetamide] the IC50 was < 1000 nM.
`C[C@H]1C[C@@H](NC(=O)CC2(C)CCN(C)CC2)CN(c2ccc(C#N)c3nccnc23)C1` [Compound 233, N-[(3R,5S)-1-(8-cyanoquinoxalin-5-yl)-5-methylpiperidin-3-yl]-2-(1,4-dimethylpiperidin-4-yl)acetamide] was tested, and the IC50 was < 1000 nM.
In the case of `C[C@H]1C[C@@H](NC(=O)CC2CCN(CC(F)F)CC2)CN(c2ccc(C#N)c3nccnc23)C1` [Compound 234, N-[(3R,5S)-1-(8-cyanoquinoxalin-5-yl)-5-methylpiperidin-3-yl]-2-[1-(2,2-difluoroethyl)piperidin-4-yl]acetamide], the IC50 is reported as < 1000 nM.
`C[C@H]1C[C@@H](NC(=O)C2CC(F)(F)C2)CN(c2ccc(C#N)c3nccnc23)C1` [Compound 235, N-[(3R,5S)-1-(8-cyanoquinoxalin-5-yl)-5-methylpiperidin-3-yl]-3,3-difluorocyclobutane-1-carboxamide] was tested, and the IC50 was < 1000 nM.
For `C[C@H]1C[C@@H](NC(=O)C2CCN(C)C2)CN(c2ccc(C#N)c3nccnc23)C1` (stereo partly drawn) [Compound 236, N-[(3R,5S)-1-(8-cyanoquinoxalin-5-yl)-5-methylpiperidin-3-yl]-1-methylpyrrolidine-3-carboxamide], the IC50 was < 1000 nM.
`C[C@H]1C[C@@H](NC(=O)CN2CCOCC2)CN(c2ccc(C(F)(F)F)c3ncccc23)C1` [Compound 239, N-[(3R,5S)-5-methyl-1-[8-(trifluoromethyl)quinolin-5-yl]piperidin-3-yl]-2-(morpholin-4-yl)acetamide] was tested, and the IC50 was < 1000 nM.
With `C[C@H]1C[C@@H](NC(=O)CO)CN(c2ccc(C(F)(F)F)c3ncccc23)C1` [Compound 240, 2-hydroxy-N-[(3R,5S)-5-methyl-1-[8-(trifluoromethyl)quinolin-5-yl]piperidin-3-yl]acetamide] the IC50 was < 1000 nM.
`C[C@H]1C[C@@H](NC(=O)C2(O)CC2)CN(c2ccc(C(F)(F)F)c3ncccc23)C1` [Compound 241, 1-hydroxy-N-[(3R,5S)-5-methyl-1-[8-(trifluoromethyl)quinolin-5-yl]piperidin-3-yl]cyclopropane-1-carboxamide] was tested, and the IC50 was < 1000 nM.
`C[C@H]1C[C@@H](NC(C)(C)CO)CN(c2ccc(C(F)(F)F)c3ncccc23)C1` [Compound 242, 2-methyl-2-[[(3R,5S)-5-methyl-1-[8-(trifluoromethyl)quinolin-5-yl]piperidin-3-yl]amino]propan-1-ol] showed an IC50 of 1000 to 10000 nM.
For `C[C@H]1C[C@@H](NC(=O)CN2CCN(C)CC2)CN(c2ccc(C(F)(F)F)c3ncccc23)C1` [Compound 243, N-[(3R,5S)-5-methyl-1-[8-(trifluoromethyl)quinolin-5-yl]piperidin-3-yl]-2-(4-methylpiperazin-1-yl)acetamide], the IC50 was < 1000 nM.
`C[C@H]1C[C@@H](NC(=O)CC2CCN(C)CC2)CN(c2ccc(C(F)(F)F)c3ncccc23)C1` [Compound 244, N-[(3R,5S)-5-methyl-1-[8-(trifluoromethyl)quinolin-5-yl]piperidin-3-yl]-2-(1-methylpiperidin-4-yl)acetamide] was tested, and the IC50 was < 1000 nM.
